Data: US4455315A, “N-(Difluoromethoxy substituted phenyl)-dichloromaleimides used in agricultural and horticultural fungicidal methods” (Showa Denko Kabushiki Kaisha, priority 1980, dated 1984)

Assays:
[1] = tested on: potted young oranges (variety: Unshu); test: Phytotoxicity of treating compound, Citrus Melanose test; details: 500 ppm
Diaporthe citri [2] = test: Citrus Melanose-controlling Test; assay type: in vivo; details: 500 ppm; for Infested Leaves (%): 24 days after inoculation; for Infestation Rate / Number of Leaves Showing Infestation Index 0 / Number of Leaves Showing Infestation Index 1 / Number of Leaves Showing Infestation Index 2 / Number of Leaves Showing Infestation Index 3 / Number of Leaves Showing Infestation Index 4: 24 days; for Infestation Rate: (Σnf/4N)×100; for Number of Leaves Showing Infestation Index 0: index 0 = 0-25% infested area; for Number of Leaves Showing Infestation Index 1: index 1 = 26-50% infested area; for Number of Leaves Showing Infestation Index 2: index 2 = 51-75% infested area; for Number of Leaves Showing Infestation Index 3: index 3 = 76-90% infested area; for Number of Leaves Showing Infestation Index 4: index 4 = 91-100% infested area
Alternaria kikuchiana [3] = test: Pear Black Spot-controlling Test; details: 500 ppm, six days after inoculation
Description: Pear Black Spot (Alternaria kikuchiana)-controlling Test
(§1) The resulting solution is sprayed on unfolded leaves of potted young pears (variety: Niju-seiki) in an amount corresponding to 600 l/10a per pot. After air-drying, the unfolded leaves are inoculated with Alternaria kikuchiana, by spraying a suspension of conidia thereof containing 30 conidia per microscopic field (magnification: X200).
(§2) After inoculation, the potted young pears are allowed to stand at a temperature of 27° C. in a moist room for one day and then transferred to a greenhouse. Six days after inoculation, the leaf area infested by pear black spot, i.e., the area of pathologic spots on a leaf is examined on 5 unfolded leaves per pot and an average infestation rate is then calculated.

[4] = tested on: potted young pears (variety: Niju-seiki); test: Phytotoxicity of treating compound, Pear Black Spot test; details: 500 ppm, damaged area on leaves
Description: as §1, §2
*The phytotoxicity of the treating compound is evaluated according to the

Diaporthe citri [5] = test: Test of Residual Activity against Citrus Melanose; assay type: in vivo; details: 1000 ppm, 23 mm/hr of rain; for Infested Leaves (%): 24 days after inoculation; for Infestation Rate: 24 days, (Σnf/4N)×100; for Number of Leaves Showing Each Infestation Index: 0: index 0 = 0-25% infested area; for Number of Leaves Showing Each Infestation Index: 1: index 1 = 26-50% infested area; for Number of Leaves Showing Each Infestation Index: 2: index 2 = 51-75% infested area; for Number of Leaves Showing Each Infestation Index: 3: index 3 = 76-90% infested area; for Number of Leaves Showing Each Infestation Index: 4: index 4 = 91-100% infested area
Alternaria kikuchiana [6] = test: Spore-germination Inhibiting Test; assay type: cell-based; details: 10 ppm, 27° C., 20 hours
Description: Spore-germination Inhibiting Test for Alternaria kukuchiana An apricot medium is inoculated with Alternaria kikuchiana and incubated at a temperature of 27° C. for 7-10 days to form conidia on the medium. […] 0.02 Ml of the prepared spore suspension containing the compound according to the present invention is dropped on a slide glass and incubated at a temperature of 27° C. under moist conditions for 20 hours. Thereafter, whether or not the spores germinate is examined under a microscope and the spore-germination rate is then calculated.

[7] = tested on: potted young oranges (variety: Unshu); test: Phytotoxicity of treating compound, residual activity test; details: 1000 ppm, 23 mm/hr of rain

O=C1C(Cl)=C(Cl)C(=O)N1c1ccccc1OC(F)F [compound 1, 2,3-dichloro-N-(o-difluoromethoxyphenyl)maleimide]
Phytotoxicity of Treating Compound [1]: - (0%) | Infested Leaves (%) (Diaporthe citri [2]): 0.5% | Infestation Rate (Diaporthe citri [2]): 0.1 | Number of Leaves Showing Infestation Index 0 (Diaporthe citri [2]): 221 leaves | Number of Leaves Showing Infestation Index 1 (Diaporthe citri [2]): 1 leaves | Number of Leaves Showing Infestation Index 2 (Diaporthe citri [2]): 0 leaves | Number of Leaves Showing Infestation Index 3 (Diaporthe citri [2]): 0 leaves | Number of Leaves Showing Infestation Index 4 (Diaporthe citri [2]): 0 leaves | Average Infestation Rate (%) (Based on infested area) (Alternaria kikuchiana [3]): 9% | Phytotoxicity of Treating Compound [4]: ± (1-5%) | Infested Leaves (%) (Diaporthe citri [5]): 22% | Infestation Rate (Diaporthe citri [5]): 7 | Number of Leaves Showing Each Infestation Index: 0 (Diaporthe citri [5]): 122 leaves | Number of Leaves Showing Each Infestation Index: 1 (Diaporthe citri [5]): 27 leaves | Number of Leaves Showing Each Infestation Index: 2 (Diaporthe citri [5]): 6 leaves | Number of Leaves Showing Each Infestation Index: 3 (Diaporthe citri [5]): 1 leaves | Number of Leaves Showing Each Infestation Index: 4 (Diaporthe citri [5]): 0 leaves | Spore-germination Rate (%) (Alternaria kikuchiana [6]): 7% | Phytotoxicity of Treating Compound [7]: ± (1-5%)

O=C1C(Cl)=C(Cl)C(=O)N1c1cccc(OC(F)F)c1 [compound 2, 2,3-dichloro-N-(m-difluoromethoxyphenyl)maleimide]
Phytotoxicity of Treating Compound [1]: - (0%) | Infested Leaves (%) (Diaporthe citri [2]): 0.5% | Infestation Rate (Diaporthe citri [2]): 0.1 | Number of Leaves Showing Infestation Index 0 (Diaporthe citri [2]): 210 leaves | Number of Leaves Showing Infestation Index 1 (Diaporthe citri [2]): 1 leaves | Number of Leaves Showing Infestation Index 2 (Diaporthe citri [2]): 0 leaves | Number of Leaves Showing Infestation Index 3 (Diaporthe citri [2]): 0 leaves | Number of Leaves Showing Infestation Index 4 (Diaporthe citri [2]): 0 leaves | Average Infestation Rate (%) (Based on infested area) (Alternaria kikuchiana [3]): 9% | Phytotoxicity of Treating Compound [4]: ± (1-5%) | Infested Leaves (%) (Diaporthe citri [5]): 2% | Infestation Rate (Diaporthe citri [5]): 0.5 | Number of Leaves Showing Each Infestation Index: 0 (Diaporthe citri [5]): 181 leaves | Number of Leaves Showing Each Infestation Index: 1 (Diaporthe citri [5]): 4 leaves | Number of Leaves Showing Each Infestation Index: 2 (Diaporthe citri [5]): 0 leaves | Number of Leaves Showing Each Infestation Index: 3 (Diaporthe citri [5]): 0 leaves | Number of Leaves Showing Each Infestation Index: 4 (Diaporthe citri [5]): 0 leaves | Spore-germination Rate (%) (Alternaria kikuchiana [6]): 0% | Phytotoxicity of Treating Compound [7]: ± (1-5%)

O=C1C=CC(=O)N1c1ccccc1OC(F)F [compound 4]
Phytotoxicity of Treating Compound [1]: - (0%) | Infested Leaves (%) (Diaporthe citri [2]): 1.0% | Infestation Rate (Diaporthe citri [2]): 0.2 | Number of Leaves Showing Infestation Index 0 (Diaporthe citri [2]): 218 leaves | Number of Leaves Showing Infestation Index 1 (Diaporthe citri [2]): 2 leaves | Number of Leaves Showing Infestation Index 2 (Diaporthe citri [2]): 0 leaves | Number of Leaves Showing Infestation Index 3 (Diaporthe citri [2]): 0 leaves | Number of Leaves Showing Infestation Index 4 (Diaporthe citri [2]): 0 leaves | Average Infestation Rate (%) (Based on infested area) (Alternaria kikuchiana [3]): 15% | Phytotoxicity of Treating Compound [4]: ± (1-5%) | Infested Leaves (%) (Diaporthe citri [5]): 82% | Infestation Rate (Diaporthe citri [5]): 30 | Number of Leaves Showing Each Infestation Index: 0 (Diaporthe citri [5]): 30 leaves | Number of Leaves Showing Each Infestation Index: 1 (Diaporthe citri [5]): 82 leaves | Number of Leaves Showing Each Infestation Index: 2 (Diaporthe citri [5]): 43 leaves | Number of Leaves Showing Each Infestation Index: 3 (Diaporthe citri [5]): 10 leaves | Number of Leaves Showing Each Infestation Index: 4 (Diaporthe citri [5]): 0 leaves | Spore-germination Rate (%) (Alternaria kikuchiana [6]): 7% | Phytotoxicity of Treating Compound [7]: + (6-25%)

CC(C)NC(=O)N1CC(=O)N(c2cc(Cl)cc(Cl)c2)C1=O [iprodione, 1-Isopropylcarbamoyl-3-(3',5'-dichlorophenyl)-hydantoin]
Average Infestation Rate (%) (Based on infested area) (Alternaria kikuchiana [3]): 11% | Phytotoxicity of Treating Compound [4]: - (0%)

[Cu+2].[O-]c1cccc2cccnc12.[O-]c1cccc2cccnc12 [oxinecopper, 8-Hydroxyquinoline-Cu]
Infested Leaves (%) (Diaporthe citri [5]): 81% | Infestation Rate (Diaporthe citri [5]): 26 | Number of Leaves Showing Each Infestation Index: 0 (Diaporthe citri [5]): 35 leaves | Number of Leaves Showing Each Infestation Index: 1 (Diaporthe citri [5]): 113 leaves | Number of Leaves Showing Each Infestation Index: 2 (Diaporthe citri [5]): 37 leaves | Number of Leaves Showing Each Infestation Index: 3 (Diaporthe citri [5]): 2 leaves | Number of Leaves Showing Each Infestation Index: 4 (Diaporthe citri [5]): 0 leaves | Phytotoxicity of Treating Compound [7]: ± (1-5%)
